Reference: PubChem BioAssay AID256 (DTP/NCI, 2004)
Values joined by “and” are separate entries in the source; they are usually repeats but may differ in a detail not shown here. Equal entries are not always repeated. Toxic doses and inconclusive results are not listed. How the source made its calls: active means survival T/C of 150% or more; inactive means T/C below 125% in these data.

Test system: CD2F1 mice, L1210 leukemia ip, survival T/C
Experiment: NCI In Vivo Anticancer Drug Screen. Data for tumor model L1210 Leukemia (intraperitoneal) in CD2F1 (CDF1) mice
Conditions: higher = longer survival
Summary of the method: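 Read-out first: treated-group measurement over vehicle-control measurement, expressed as a ratio. Animals bore a transplanted tumor line and were dosed with compound or vehicle.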

[1] = endpoint: mean survival time, dose: 100.0 mg/kg/injection, schedule: Q01DX001 (ip), vehicle: saline with Tween-80
[2] = endpoint: mean survival time, dose: 100.0 mg/kg/injection, schedule: Q04DX003 (ip), vehicle: saline with Tween-80
[3] = endpoint: mean survival time, dose: 200.0 mg/kg/injection, schedule: Q01DX001 (ip), vehicle: saline with Tween-80
[4] = endpoint: mean survival time, dose: 200.0 mg/kg/injection, schedule: Q04DX003 (ip), vehicle: saline with Tween-80
[5] = endpoint: mean survival time, dose: 400.0 mg/kg/injection, schedule: Q01DX001 (ip), vehicle: saline with Tween-80
[6] = endpoint: mean survival time, dose: 6.25 mg/kg/injection, schedule: Q01DX009 (ip), vehicle: saline with Tween-80

Measured: T/C

NC(=O)c1nc(C2OC(CO)C(O)C2O)cs1 (stereo not drawn)
inactive: endpoint: median survival time, dose: 50.0 mg/kg/injection, schedule: Q01DX005 (ip), vehicle: water 100 % of control | endpoint: median survival time, dose: 100.0 mg/kg/injection, schedule: Q01DX005 (ip), vehicle: water 102 % of control | endpoint: median survival time, dose: 200.0 mg/kg/injection, schedule: Q01DX005 (ip), vehicle: water 98 % of control | endpoint: median survival time, dose: 400.0 mg/kg/injection, schedule: Q01DX005 (ip), vehicle: water 101 % of control

Cc1ccc(S(=O)(=O)OC(C#N)c2ccccc2)cc1 (stereo not drawn)
inactive: endpoint: mean survival time, dose: 50.0 mg/kg/injection, schedule: Q01DX009 (ip), vehicle: saline with Tween-80 100 % of control | endpoint: mean survival time, dose: 50.0 mg/kg/injection, schedule: Q04DX003 (ip), vehicle: saline with Tween-80 102 % of control | [1] 98 % of control | endpoint: mean survival time, dose: 100.0 mg/kg/injection, schedule: Q01DX009 (ip), vehicle: saline with Tween-80 101 % of control | [2] 101 % of control | [3] 105 % of control | [4] 107 % of control

Cc1nc(N)[nH]c(=O)c1CCCNc1cccnc1
inactive: [1] 96 % of control | [3] 92 % of control | [5] 92 % of control

Cc1ccccc1N=C(NO)c1ccccc1
inactive: endpoint: mean survival time, dose: 50.0 mg/kg/injection, schedule: Q01DX009 (ip), vehicle: saline 98 % of control | endpoint: mean survival time, dose: 100.0 mg/kg/injection, schedule: Q01DX009 (ip), vehicle: saline 98 % of control | endpoint: mean survival time, dose: 200.0 mg/kg/injection, schedule: Q01DX009 (ip), vehicle: saline 95 % of control

O=c1c2ccccc2sc2ccc3c(ccc4sc5ccccc5c(=O)c43)c12
inactive: [1] 93 % of control | [3] 100 % of control | [5] 92 % of control

CCCCCOS(=O)(=O)O
inactive: endpoint: mean survival time, dose: 100.0 mg/kg/injection, schedule: Q01DX001 (ip), vehicle: saline 108 % of control | endpoint: mean survival time, dose: 200.0 mg/kg/injection, schedule: Q01DX001 (ip), vehicle: saline 120 % of control | endpoint: mean survival time, dose: 400.0 mg/kg/injection, schedule: Q01DX001 (ip), vehicle: saline 102 % of control

O=[N+]([O-])c1ccc(CCCl)c(CCl)c1
inactive: [2] 98 % of control | [4] 86 % of control

NC(=S)N/N=C/c1cc(-c2cccc(N)c2)ccn1
inactive: [6] 113 % of control | endpoint: mean survival time, dose: 9.4 mg/kg/injection, schedule: Q01DX009 (ip), vehicle: saline with Tween-80 116 % of control and 104 % of control | endpoint: mean survival time, dose: 12.5 mg/kg/injection, schedule: Q01DX009 (ip), vehicle: saline with Tween-80 115 % of control | endpoint: mean survival time, dose: 18.8 mg/kg/injection, schedule: Q01DX009 (ip), vehicle: saline with Tween-80 115 % of control and 118 % of control | endpoint: mean survival time, dose: 25.0 mg/kg/injection, schedule: Q01DX009 (ip), vehicle: saline with Tween-80 123 % of control | endpoint: mean survival time, dose: 37.5 mg/kg/injection, schedule: Q01DX009 (ip), vehicle: saline with Tween-80 115 % of control and 119 % of control | endpoint: mean survival time, dose: 75.0 mg/kg/injection, schedule: Q01DX009 (ip), vehicle: saline with Tween-80 89 % of control and 104 % of control and 107 % of control

O=C1CSC(=S)N1/N=C/c1ccc(Cl)c(Cl)c1
inactive: endpoint: mean survival time, dose: 1.56 mg/kg/injection, schedule: Q01DX009 (ip), vehicle: saline with Tween-80 97 % of control | endpoint: mean survival time, dose: 3.13 mg/kg/injection, schedule: Q01DX009 (ip), vehicle: saline with Tween-80 100 % of control | [6] 91 % of control | endpoint: mean survival time, dose: 6.25 mg/kg/injection, schedule: Q04DX003 (ip), vehicle: saline with Tween-80 100 % of control

CCCCNC(C)[C@]1(O)Cc2c(O)c3c(c(O)c2[C@@H](OC2CC(N)C(O)C(C)O2)C1)C(=O)c1c(OC)cccc1C3=O (stereo partly drawn)
inactive: endpoint: mean survival time, dose: 0.15 mg/kg/injection, schedule: Q01DX009 (ip), vehicle: water 106 % of control | endpoint: mean survival time, dose: 0.31 mg/kg/injection, schedule: Q01DX009 (ip), vehicle: water 114 % of control | endpoint: mean survival time, dose: 0.62 mg/kg/injection, schedule: Q01DX009 (ip), vehicle: water 111 % of control | endpoint: mean survival time, dose: 1.25 mg/kg/injection, schedule: Q01DX009 (ip), vehicle: water 112 % of control | endpoint: mean survival time, dose: 2.5 mg/kg/injection, schedule: Q01DX009 (ip), vehicle: water 122 % of control | endpoint: mean survival time, dose: 5.0 mg/kg/injection, schedule: Q01DX009 (ip), vehicle: water 118 % of control | endpoint: mean survival time, dose: 10.0 mg/kg/injection, schedule: Q01DX009 (ip), vehicle: water 88 % of control
